Assay results as given in PMC5640672, “Molecular mechanism of synergy between the antimicrobial peptides PGLa and magainin 2” (Scientific Reports, 2017).
No end group written: not given here.

Key:
S. aureus DSM 1104 = assay: Checker-board assay (FICI); type: cell-based, Staphylococcus aureus; conditions: for FICI in combination with MAG2-WT: below 0.5 = synergistic activity
Experimental: A suitable method to study synergistic antimicrobial activity is the so-called checker-board assay, described in the Methods section. We performed such experiments on one Gram-negative bacterium, E. coli, and one Gram-positive one, S. aureus. From this method a fractional inhibitory concentration index (FICI) is determined, and when this is below 0.5, the peptides are said to have a synergistic effect against bacteria. This is the biologically relevant effect, but we are here interested in the atomistic details of the interactions behind the effect. Therefore we also use biophysical methods.
The antimicrobial activity of the peptides was investigated with a standard MIC assay[87],[88] on one Gram positive (Staphylococcus aureus, DSM 1104, ATCC 25923) and one Gram negative bacterial strain (Escherichia coli, DSM 1103, ATCC 25922). Bacteria were grown in Müller-Hinton medium (MH) at 37 °C and 220 rpm. Overnight cultures were inoculated from a single colony and grown for approximately 16 h. Day cultures were grown for approximately 3 h until they reached the exponential growth phase. These suspensions were diluted with MH-medium to a concentration of 10^6 colony-forming units (CFU) per ml. The microtiter plates (96 wells of 100 µL) were filled with 50 µL of MH, and serial 2-fold dilutions of each peptide were arranged in triplets along the columns. […] Two columns were filled with medium only, to serve as a positive control (bacteria), and as a negative control (no bacteria) to check for contamination of the medium. The bacterial suspension was added in 50 µL aliquots to each well, except for the negative control, to reach a final concentration of 5 × 10^5 CFU/ml. The plates were incubated for 22 h at 37 °C. To each well 20 µL of 0.2 mg/ml Resazurin solution was added and incubated for another two hours. The MIC value was determined visually, as the lowest peptide concentration which inhibited bacterial growth in at least two out of three columns.
To visualize synergy between different peptides, a two-dimensional dilution assay was used[89],[90]. The same bacterial strains were used as in the MIC assay. The procedure of preparing the bacterial suspensions was analogous to the MIC assay, but with a higher final concentration because the volumes in the two setups are different. The main plate (MP) was filled with 40 µl of MH, and serial 2-fold dilutions of the peptide were arranged in each row (8 rows × 7 columns). As described above, the first column was filled with doubly concentrated medium. On another plate (HP, help plate) a second peptide dilution assay was performed, but orthogonal to the main plate. The last row was left empty (7 rows × 8 columns). 40 µL of each well of the HP were transferred to each well of the MP (A1 → A1, etc.). Two columns were filled with medium only, to serve as a positive control (bacteria), and as a negative control (no bacteria) to check for contamination of the medium. The bacterial suspension was added in 20 µL aliquots to each well, except for the negative control, to reach a final concentration of 5 × 10^5 CFU/ml. The plates were incubated for 22 h at 37 °C. To each well 20 µL of 0.1 mg/ml Resazurin solution was added and incubated for another two hours. From these plates, it is possible to determine the MIC value for each of the two peptides, as well as the inhibitory values of the mixtures with 7 × 7 different peptide ratios. From these values, fractional inhibitory concentration indices (FICIs) were calculated with the following formula[89],[91]:1 FICI=[MIC(A)^comb/MIC(A)^alone]+[MIC(B)^comb/MIC(B)^alone] In this formula, MIC(A)^alone is the MIC value determined for peptide A alone, and MIC(A)^comb is the concentration of peptide A at the MIC determined for the combination. The same holds for peptide B. FICI values below 0.5 are taken to indicate a clear synergistic effect, values between 0.5 and 2 an additive effect, and values above 2 an antagonistic effect[89],[92].

[1] = Fluorescence ANTS/DPX vesicle leakage assay in POPE/POPG/TOCL (72:23:5); conditions: POPE/POPG/TOCL (72:23:5) 100 nm vesicles, P/L ≈ 1:30, mixtures 1:1, 10 mM HEPES pH 7.5, 155 mM NaCl, 30 °C, 600 s, % of Triton-X-100 leakage, mean of n = 3
Text: It could be argued that POPC/POPG (3:1) is not the most appropriate model system to describe a bacterial membrane, which rarely contains PC lipids. We therefore also performed leakage in another lipid system, POPE/POPG/TOCL (72:23:5), which is a good model of E. coli membranes[45],[69],[70]. […] For all of the other mutants discussed below, leakage was also studied both in POPC/POPG as well as POPE/POPG/TOCL, but since the results (synergy or no synergy) were in all cases the same, the latter data will not be presented in the text. All leakage data in POPE/POPG/TOCL (72:23:5) for charge mutants are summarized in Supplementary Table S4.
Leakage of small unilamellar vesicles induced by the peptides was studied using a standard fluorescence assay.
The appropriate lipids for each experiment were dissolved in CHCl3, together with 0.02 mol-% Rhodamine-PE (Rh-PE). […] This stock suspension was subjected to 10 freeze-thaw cycles and then frozen. Appropriate aliquots of the stock lipid suspension were unfrozen each day and extruded (41 times) through polycarbonate membranes with 100 nm pore size, and stored at room temperature overnight. The fluorophore and quencher outside the vesicles were removed by size exclusion chromatography using spin-columns (Pierce centrifuge column, 2 ml, Life Technologies GmbH, Darmstadt, Germany) filled with Sephacryl 100-HR (2 min, 1500 × g). For elution, a 10 mM HEPES buffer (pH 7.5) was used, containing 155 mM NaCl to balance the osmolarity. After extrusion and removal of the external dye and quencher, the lipid concentration usually decreases. Therefore, before each set of measurements a rhodamine spectrum was recorded to determine the actual concentration of lipids, which was referenced to a spectrum taken of vesicles made by sonification without any subsequent treatment.
Fluorescence experiments were performed on a FluoroMax2 spectrofluorimeter (HORIBA Jobin Yvon, Unterhaching, Germany) equipped with a thermostated sample holder and magnetic stirrer, using an excitation wavelength of 355 nm, an emission wavelength of 508 nm, and slit widths of 5 nm. The peptide solutions were placed in elution buffer in a 1 cm standard cuvette at 30 °C. 100 s after the start of the measurement lipid vesicles were added, and the intensity of the fluorescence at 508 nm was recorded. The leakage was measured during 600 s after addition of vesicles, and the measurement was terminated after addition of Triton-X-100 (0.25% v/v), which dissolved the vesicles, and yielded 100% leakage. To determine the background signal of the vesicles themselves, several blanks were recorded per measurement set. From the leakage values of the peptides alone and of the mixture of two peptides a synergy factor SF was calculated:3 SF=L(A+B)/[L(A)+L(B)] Here, L(A) is the leakage found with peptide A alone, L(B) is the leakage found with peptide B alone, and L(A + B) is the leakage found with the mixture of peptides A and B. In all cases the P/L was the same for both peptides, alone and in the mixture, so that in the mixture the total P/L was twice that of the individual peptide measurements. […] Measurements were repeated three times and average values and standard deviations calculated for the leakage and the synergy factors. An average SF ≥ 2 was taken to indicate synergy.

[2] = Table S4 series (charge mutants)
[3] = Table S8 series (PGLa-to-MSI mutants)

| Substance | FICI in combination with PGLa-WT (S. aureus DSM 1104) | Leakage, mean value [1, 2] [%] | FICI in combination with MAG2-WT (S. aureus DSM 1104) | Leakage, mean value [1, 3] [%] | Leakage, mean value ([1]; Table S12 series (MSI-to-PGLa mutants)) [%] |
| --- | --- | --- | --- | --- | --- |
| GIGKFLHSAKKFGKAFVGKIMNS-OH [MAG2-E19K, MAG2 charge mutant E19K] | above 0.5 | 1.6 |  |  |  |
| GMASKAGKIAGKIAKVALKAL-NH2 (also: 15N-labeled Ala10) [PtM-A8K, PGLa single mutant A8K] |  |  | below 0.5 | 7.1 |  |
| GMASKAGAIAGKIAKIAGKIA-NH2 [PtM-c1, PGLa to MSI-103 mutant, segment C replaced] |  |  | below 0.5 | 1.5 |  |
| GIGKFLHSAKKFGKAFVGKIMNS-NH 2 (GIGKFLHSAKKFGKAFVGKIMNS-NH2) [MAG2-E19K-amide, amidated MAG2 E19K mutant] | above 0.5 | 2.9 |  |  |  |
| GMASKIGAIAGKIAKVALKAL-NH2 (also: 15N-labeled Ala10) [PtM-A6I, PGLa single mutant A6I] |  |  | below 0.5 | 3.7 |  |
| KIAGKIGKIAGKIAKIAGKIA-NH2 [MtP-A7G, MSI-103 to PGLa single mutant A7G] |  |  | below 0.5 |  | 5.1 |
| KIAGKAGAIAGKIAKVALKAL-NH2 [PtM-a2, PGLa to MSI-103 mutant, three amino acids converted] |  |  | below 0.5 | 4.5 |  |
